Among the data in PubChem BioAssay AID1259407 (Chemical Carcinogenesis Research Information System (CCRIS), 2018) are mutagenic call values, retold here.

The data set deals with CCRIS mutagenicity, Ames/micronucleus/aberration tests. The data set is described as follows: CCRIS mutagenicity studies.

Calls of active or inactive are those of the source. How the calls were made is not given here.

As for `Cc1c(N=C=O)cccc1N=C=O`, the mutagenic call runs as follows: (End Point: IN VITRO CHROMOSOMAL ABERRATIONS, Test System: CHL CELLS, Metabolic Activation: RAT, LIVER, S-9, SODIUM PHENOBARBITAL AND 5,6-BENZOFLAVONE) “active; positive (ploidy changes); authors report equivocal results for structural chang”; (End Point: IN VITRO CHROMOSOMAL ABERRATIONS, Test System: CHO CELLS, Metabolic Activation: RAT, LIVER, S-9, AROCLOR 1254) “inactive; negative; precipitation occurred at 500 ug/ml”; (Test System: AMES SALMONELLA TYPHIMURIUM, Strain/Indicator: TA97, Metabolic Activation: HAMSTER, LIVER, S-9, AROCLOR 1254 (10%), Method: PREINCUBATION) “inactive; negative”; (Test System: AMES SALMONELLA TYPHIMURIUM, Strain/Indicator: TA97, Metabolic Activation: NONE, Method: PREINCUBATION) “inactive; negative”; (Test System: AMES SALMONELLA TYPHIMURIUM, Strain/Indicator: TA97, Metabolic Activation: RAT, LIVER, S-9, AROCLOR 1254 (10%), Method: PREINCUBATION) “inactive; negative”; (Test System: AMES SALMONELLA TYPHIMURIUM, Strain/Indicator: TA98, Metabolic Activation: HAMSTER, LIVER, S-9, AROCLOR 1254 (10%), Method: PREINCUBATION) “active; positive”. In addition, the mutagenic call is, setting by setting: (Test System: AMES SALMONELLA TYPHIMURIUM, Strain/Indicator: TA98, Metabolic Activation: NONE, Method: PREINCUBATION) “inactive; negative”; (Test System: AMES SALMONELLA TYPHIMURIUM, Strain/Indicator: TA98, Metabolic Activation: RAT LIVER S-9 AROCLOR 1254 (10 OR 30%), Method: STANDARD PLATE) “active; positive”; (Test System: AMES SALMONELLA TYPHIMURIUM, Strain/Indicator: TA98, Metabolic Activation: RAT, LIVER, S-9, AROCLOR 1254 (10%), Method: PREINCUBATION) “active; positive”; (Test System: AMES SALMONELLA TYPHIMURIUM, Strain/Indicator: TA100, Metabolic Activation: HAMSTER, LIVER, S-9, AROCLOR 1254 (10%), Method: PREINCUBATION) “active; positive”; (Test System: AMES SALMONELLA TYPHIMURIUM, Strain/Indicator: TA100, Metabolic Activation: NONE, Method: PREINCUBATION) “inactive; negative”; (Test System: AMES SALMONELLA TYPHIMURIUM, Strain/Indicator: TA100, Metabolic Activation: RAT, LIVER, S-9, AROCLOR 1254 (10%), Method: PREINCUBATION) “inactive; negative”. In addition, the mutagenic call is “inactive; negative” (Test System: AMES SALMONELLA TYPHIMURIUM, Strain/Indicator: TA1535, Metabolic Activation: HAMSTER, LIVER, S-9, AROCLOR 1254 (10%), Method: PREINCUBATION); “inactive; negative” (Test System: AMES SALMONELLA TYPHIMURIUM, Strain/Indicator: TA1535, Metabolic Activation: NONE, Method: PREINCUBATION); “inactive; negative” (Test System: AMES SALMONELLA TYPHIMURIUM, Strain/Indicator: TA1535, Metabolic Activation: RAT LIVER S-9, PHENOBARBITAL AND BETA-NAPHTHOFLAVONE, Method: PREINCUBATION); “inactive; negative” (Test System: AMES SALMONELLA TYPHIMURIUM, Strain/Indicator: TA1535, Metabolic Activation: RAT, LIVER, S-9, AROCLOR 1254 (10%), Method: PREINCUBATION); “inactive; negative” (Test System: AMES SALMONELLA TYPHIMURIUM, Strain/Indicator: TA1537, Metabolic Activation: NONE, Method: PREINCUBATION); “inactive; negative” (Test System: AMES SALMONELLA TYPHIMURIUM, Strain/Indicator: TA1537, Metabolic Activation: RAT LIVER S-9, AROCLOR 1254 (10 OR 30%), Method: STANDARD PLATE). For the same molecule, the mutagenic call (Test System: AMES SALMONELLA TYPHIMURIUM, Strain/Indicator: TA1537, Metabolic Activation: RAT LIVER S-9, PHENOBARBITAL AND BETA-NAPHTHOFLAVONE, Method: PREINCUBATION) is “inactive; negative”; the mutagenic call (Test System: E.COLI, Strain/Indicator: WP2UVRA, Metabolic Activation: NONE, Method: PREINCUBATION) was “inactive; negative”; the mutagenic call (Test System: E.COLI, Strain/Indicator: WP2UVRA, Metabolic Activation: RAT LIVER S-9, PHENOBARBITAL AND BETA-NAPHTHOFLAVONE, Method: PREINCUBATION) is “inactive; negative”; the mutagenic call (Test System: MOUSE LYMPHOMA, Strain/Indicator: L5178Y (TK+/TK-), Metabolic Activation: NONE, Method: SUSPENSION/PLATE) was “active; positive”; the mutagenic call (Test System: MOUSE LYMPHOMA, Strain/Indicator: L5178Y (TK+/TK-), Metabolic Activation: RAT, LIVER, S-9, AROCLOR 1254, Method: SUSPENSION/PLATE) was “active; positive”.
